The target of this experiment is cloned h5-HT2A receptor (Homo sapiens, UniProt P28223). The experiment is described as follows: 5-HT2A competitive radioligand binding assay. Particulars: ratio of H1 Ki to 5-HT2A Ki.

The structures appear in SMILES notation.

Chain of cloned h5-HT2A receptor (P28223 whole entry): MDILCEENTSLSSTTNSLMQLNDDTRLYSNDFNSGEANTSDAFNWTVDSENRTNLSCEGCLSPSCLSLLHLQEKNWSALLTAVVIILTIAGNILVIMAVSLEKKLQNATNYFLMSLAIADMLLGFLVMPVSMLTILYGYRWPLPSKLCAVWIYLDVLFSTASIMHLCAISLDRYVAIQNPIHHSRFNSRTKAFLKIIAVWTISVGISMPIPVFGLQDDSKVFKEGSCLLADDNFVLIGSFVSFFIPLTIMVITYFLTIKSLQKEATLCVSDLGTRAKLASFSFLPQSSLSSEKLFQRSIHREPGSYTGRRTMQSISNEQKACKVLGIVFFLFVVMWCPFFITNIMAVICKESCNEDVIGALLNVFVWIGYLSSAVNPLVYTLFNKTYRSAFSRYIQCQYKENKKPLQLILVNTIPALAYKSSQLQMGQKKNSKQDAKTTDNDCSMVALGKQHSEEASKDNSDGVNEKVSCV

As for `COc1ccc2c3c(ccc2c1)Cc1ccccc1C3CN` (stereo not shown) [Compound 2b, (7,12-dihydrotetraphene-3-methoxy-12-yl)methanamine], the “selectivity for 5-HT2A over the H1 receptor” value worked out at 100 fold.

Source of the values: publication PMC3252747 (Bioorganic & medicinal chemistry letters, 2009).
